Measured values from patent US11026910B2, “α- and γ-truxillic acid derivatives and pharmaceutical compositions thereof” (The Research Foundation for The State University of New York, priority 2012, dated 2021).
“Also recorded” adds a separate entry of the source.

Experiments:
rat FAAH = target: T1, rat FAAH (Rattus norvegicus, UniProt P97612); assay: FAAH enzyme assay, hydrolysis of [14C]AEA in HeLa homogenates; type: biochemical; conditions: FAAH-transfected HeLa homogenates
T1 construct: expressed in transfected cells; host or cells: HeLa
T1 sequence (P97612 1-579): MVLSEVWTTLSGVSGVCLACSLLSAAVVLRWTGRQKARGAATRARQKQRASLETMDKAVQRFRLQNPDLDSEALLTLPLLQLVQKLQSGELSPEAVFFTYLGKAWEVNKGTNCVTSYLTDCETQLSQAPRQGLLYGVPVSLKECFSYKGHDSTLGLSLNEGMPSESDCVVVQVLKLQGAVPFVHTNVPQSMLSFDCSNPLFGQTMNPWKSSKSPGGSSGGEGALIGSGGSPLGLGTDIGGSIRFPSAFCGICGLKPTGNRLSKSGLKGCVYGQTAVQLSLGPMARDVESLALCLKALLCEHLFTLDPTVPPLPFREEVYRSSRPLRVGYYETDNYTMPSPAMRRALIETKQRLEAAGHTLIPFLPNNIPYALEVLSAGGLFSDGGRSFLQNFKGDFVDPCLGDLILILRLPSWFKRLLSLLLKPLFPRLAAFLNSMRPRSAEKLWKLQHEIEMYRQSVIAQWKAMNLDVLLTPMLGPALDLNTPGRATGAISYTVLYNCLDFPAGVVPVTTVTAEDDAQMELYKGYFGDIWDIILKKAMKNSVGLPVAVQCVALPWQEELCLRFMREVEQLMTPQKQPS

PPARα = target: T2, PPARα (Homo sapiens, UniProt Q07869); assay: PPARα transactivation in HeLa cells; type: cell-based
T2 construct: expressed in transfected cells; host or cells: HeLa
T2 sequence (Q07869 1-468): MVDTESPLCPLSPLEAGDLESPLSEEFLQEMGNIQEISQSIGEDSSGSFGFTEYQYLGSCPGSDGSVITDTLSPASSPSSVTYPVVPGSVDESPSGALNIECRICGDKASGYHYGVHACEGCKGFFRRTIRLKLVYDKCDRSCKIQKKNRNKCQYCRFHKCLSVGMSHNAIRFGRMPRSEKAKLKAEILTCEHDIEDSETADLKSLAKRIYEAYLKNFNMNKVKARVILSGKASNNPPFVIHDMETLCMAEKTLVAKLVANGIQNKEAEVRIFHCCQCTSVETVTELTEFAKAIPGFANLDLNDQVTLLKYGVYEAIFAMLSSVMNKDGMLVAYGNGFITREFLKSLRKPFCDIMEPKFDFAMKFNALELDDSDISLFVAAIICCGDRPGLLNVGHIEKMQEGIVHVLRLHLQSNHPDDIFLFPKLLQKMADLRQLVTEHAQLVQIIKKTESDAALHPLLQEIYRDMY
Experimental: PPARα and PPARγ transactivation assays were performed in HeLa cells exactly as described (Kaczocha, M. et al. 2012).

[1] = tested on: dorsal raphe (DR) serotonin (5-HT) neurons; assay: Patch-clamp electrophysiology in brain slices, glutamate-mediated EPSCs; type: cell-based
Experimental: Whole-cell-voltage clamp recordings of dorsal raphe (DR) serotonin (5-HT) neurons were performed as previously described. Briefly, DR neurons were visualized using an upright microscope (BX 51 WI, Olympus, Tokyo, Japan) equipped with a differential interference contrast and infrared imaging system. Somatic recordings from DR neurons were obtained with path electrodes ([…]) back-filled with potassium gluconate based internal solution of the following composition: 120 mM potassium gluconate, 10 mM KCl, 10 mM Na2-phosphocreatine, 10 mM HEPES, 1 mM MgCl2, 1 mM EGTA, 2 mM Na2-ATP, 0.25 mM Na-GTP, pH 7.3 (Adjusted with KOH; Osmolarity, 280 to 290 mOsmol/l). All the recordings were conducted in the presence of GABAA receptor antagonist picrotoxin (100 μM). Excitatory postsynaptic currents (EPSCs) were evoked with a single square stimulus (intensity, 1 to 10 V, duration, 100 to 200 μs) delivered via a glass stimulating electrode. […]
The amplitude of EPSCs was determined by measuring the average current during a 2-ms period at the peak of each EPSC and subtracted from the baseline current determined during a 5-ms time window before the stimulus. All EPSC amplitudes were normalized to the mean baseline amplitude recorded for at least 10 min before drug application. […]

male C57Bl6 mice = assay: Formalin test; type: in vivo
Experimental: (§1) We used male C57Bl6 mice (22-30 g, Taconic Farms) for all experiments. The animals were group housed at room temperature and kept on a 12:12 hour light:dark cycle with ad libitum access to water and food. The animals were habituated to the experimental room for one week before testing. All experiments were approved by the Stony Brook University Institutional Animal Care and Use Committee. The experimenter was blinded to the treatment conditions of each animal.
Mice were habituated to the observation chamber (Plexiglas box, 25 cm×25 cm×25 cm) for 30 min prior to formalin injection. The mice subsequently received an injection of formalin (2.5% in saline, 20 μl) into the plantar surface of the right hind paw using a 27 gauge needle. The animals were immediately placed back into the observation, chamber and nocifensive behavior (time spent licking or biting the paw) was recorded for 60 min. The formalin test consists of two phases with the first phase (0-5 min) reflecting nociceptor activation and the second phase (15-45 min) reflecting an inflammatory pain response.
Behavioral data are presented as means±S.E.M. for the vehicle and inhibitor-treated groups, each consisting of at least 6 animals. Statistical significance between vehicle and inhibitor groups was determined using unpaired t-tests or one-way ANOVA followed by Dunnett's post hoc analysis. In all cases, differences of p<0.05 were considered significant.

mice = assay: Acetic acid-induced writhing; type: in vivo
Experimental: as §1

[2] = tested on: brain levels of the endocannabinoid anandamide (AEA); assay: Brain levels of the endocannabinoid anandamide (AEA); type: in vivo, mice; conditions: FIG. 17
Experimental: as §1

Question: How did the “inhibition of FAAH (AEA hydrolysis)” value (rat FAAH) turn out when `O=C(O)[C@H]1[C@@H](c2ccccc2)[C@@H](C(=O)Oc2cccc3ccccc23)[C@@H]1c1ccccc1` (single isomer, unassigned) [Compound 26, α-2,4-diphenyl-cyclobutane-1,3-dicarboxylic Acid mono-(1-naphthol) Ester] was run?
Answer: does not inhibit

Question: And the “activation of PPARα” value (PPARα; 6 hrs incubation, luciferase reporter)?
Answer: ~2 fold

Question: And the “agonism at PPARα” value (PPARα; compared with GW7647)?
Answer: weak agonist

Question: And the “amplitude of EPSCs” value ([1]; bath application 10 μM, n=8)?
Answer: 107±6.7 % of baseline

Question: And the “agonist properties at CB1 receptors” value ([1]; concluded from EPSC amplitude, 10 μM)?
Answer: is not a CB1 receptor agonist

Question: What about the “formalin test first phase (0-5 min) nocifensive behavior” value (male C57Bl6 mice; 20 mg/kg, i.p. (FIG. 10A)) of the same molecule?
Answer: significantly reduced; also recorded: reduces

Question: And the “formalin test second phase (15-45 min) nocifensive behavior” value (male C57Bl6 mice; 20 mg/kg, i.p. (FIG. 10A))?
Answer: only during the first phase

Question: And the “first phase of formalin-induced nociception” value (male C57Bl6 mice; FIG. 16B)?
Answer: reduce

Question: And the “second phase of formalin-induced nociception” value (male C57Bl6 mice; FIG. 16B)?
Answer: reduce

Question: And the “antinociceptive effects with SR141716 (3 mg/kg) and GW6471 (4 mg/kg)” value (mice; FIG. 16E)?
Answer: reversed

Question: And the acetic acid-induced writhing (mice; FIGS. 16C-D)?
Answer: reduces

Question: And the “brain levels of anandamide (AEA)” value [2]?
Answer: elevates
